Test results reported in US9649306B2, “Treatment of diseases through administration of N-[5-(3,5-difluoro-benzyl)-1H-indazol-3-yl]-4-(4-methyl-piperazin-1-yl)-2-(tetrahydro-pyran-4-ylamino)-benzamide” (NERVIANO MEDICAL SCIENCES S.R.L., priority 2012, dated 2017).
Entries after “also recorded” stand apart in the source; their conditions may differ.

Assay: Hygroscopicity test by Dynamic Vapour Sorption (DVS 1000, SMS)
Type: physicochemical
Conditions: for hygroscopicity (in words): DVS, 0-90% RH at 25° C.
From the text: The observed water uptake was investigated by submitting a sample of such substances to a hygroscopicity test by means of a DVS 1000 (SMS). The apparatus is a “controlled atmosphere microbalance” where the weighed sample is exposed to programmed variations of the relative humidity (RH) at a constant and controlled temperature. The measured parameters (weight, time and RH), reported in Excel worksheets, allow obtaining hygroscopicity curves over the tested RH range. For example, sorption/desorption cycles between 0% and 90% RH can be performed at controlled temperature of 25° C. Progressive variations of RH can be, for example, of 10% and 3% and are operated by the software at the equilibration of the sample weight. This condition can be defined at a constant rate of percent weight variation such as, for example, 0.005%/min. FIG. 6 reports the DVS profiles of the amorphous form, crystalline form 1 and crystalline form 2 of the compound of formula (I). Relative Humidity (RH, %) values are reported on the x-axis while Change in Mass (%) is reported on the y axis. The curves are related to the sorption step between 0% RH and 90% RH at 25° C.

[1] = DVS sorption step, 25° C./90% RH

SMILES | water uptake (DVS at 25° C., from RH values lower than 30% RH) | water uptake [1] | hygroscopicity (in words)
CN1CCN(c2ccc(C(=O)Nc3n[nH]c4ccc(Cc5cc(F)cc(F)c5)cc34)c(NC3CCOCC3)c2)CC1 [amorphous form, N-[5-(3,5-Difluoro-benzyl)-1H-indazol-3-yl]-4-(4-methyl-piperazin-1-yl)-2-(tetrahydro-pyran-4-ylamino)-benzamide] | greater than 1% | 2.5% | higher hygroscopicity than the crystalline forms 1 and 2; also recorded: hygroscopic solid
CN1CCN(c2ccc(C(=O)Nc3n[nH]c4ccc(Cc5cc(F)cc(F)c5)cc34)c(NC3CCOCC3)c2)CC1 [crystalline form 1, N-[5-(3,5-Difluoro-benzyl)-1H-indazol-3-yl]-4-(4-methyl-piperazin-1-yl)-2-(tetrahydro-pyran-4-ylamino)-benzamide] |  | 0.6% | low hygroscopicity
CN1CCN(c2ccc(C(=O)Nc3n[nH]c4ccc(Cc5cc(F)cc(F)c5)cc34)c(NC3CCOCC3)c2)CC1 [crystalline form 2, N-[5-(3,5-Difluoro-benzyl)-1H-indazol-3-yl]-4-(4-methyl-piperazin-1-yl)-2-(tetrahydro-pyran-4-ylamino)-benzamide] |  | 0.2% | low hygroscopicity
